Experimental findings from US6852726B2, “Substituted indoles as alpha-1 agonists” (Syntex LLC, priority 2002, dated 2005) are described below.

Data set [1] deals with T1, alpha-1A adrenoceptors expressed in CHO-K1 cells (clone 13) (Homo sapiens, UniProt P35348).
T1 construct: expressed in transfected cells; host or cells: CHO-K1 (clone 13)
T1 sequence (P35348 1-466): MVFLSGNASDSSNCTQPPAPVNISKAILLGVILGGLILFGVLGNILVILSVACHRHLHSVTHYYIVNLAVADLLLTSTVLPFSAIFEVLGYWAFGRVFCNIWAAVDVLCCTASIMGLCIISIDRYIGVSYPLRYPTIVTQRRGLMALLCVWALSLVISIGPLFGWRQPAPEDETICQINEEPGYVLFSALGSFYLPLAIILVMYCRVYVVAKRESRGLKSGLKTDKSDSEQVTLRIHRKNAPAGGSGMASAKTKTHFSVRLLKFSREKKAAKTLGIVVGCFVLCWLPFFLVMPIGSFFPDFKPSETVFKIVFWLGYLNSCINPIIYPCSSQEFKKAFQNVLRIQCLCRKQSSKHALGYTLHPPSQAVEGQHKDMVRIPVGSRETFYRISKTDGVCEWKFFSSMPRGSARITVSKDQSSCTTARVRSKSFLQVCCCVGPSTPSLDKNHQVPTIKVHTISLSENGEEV
Description: Functional assay for alpha-1A/L agonist activity (FLIPR, Fluo-3 intracellular calcium). Type of data set: cell-based. To be noted: for IA (intrinsic activity): maximum response relative to full agonist norepinephrine bitartrate, CHO-K1 alpha-1A cells. The source says: The inhibitory activity of compounds of this invention in vitro was examined using fluorescent dye determination of intracellular calcium concentrations as described in Example 6.
Functional Assay for Alpha-1A/L Agonist Activity
The inhibitory activity of compounds of this invention in vitro was examined using fluorescent dye determination of intracellular calcium concentrations.
Chinese hamster ovary cells CHO-K1 expressing the alpha-1A adrenoceptors (clone 13) are washed 4 times (approx. 300 μL/well) with fluorometric imaging plate reader (FLIPR) buffer (Hank's buffered saline solution (HBSS), 2 mM CaCl2, 10 mM HEPES, 2,5 mM probenecid, 100 μM ascorbic acid), with a final volume of 150 μL/well. Cells are loaded with 50 μL/well of 8 μM Fluo-3 AM (Molecular Probes, Eugene, Oreg.), for a final concentration of 2 μM Fluo-3 AM. Cells are then incubated for 60 min at 37° C. Following dye loading, cells are washed 4 times (approx. 300 μL/well) with FLIPR buffer with a final volume of 150 μL/well.
The Test compound, control compound and reference compound are run in quadruplicate, 8-point curves on each plate with a final assay concentration range of 10^−4M to 10^−11M for each compound. All compounds are dissolved in DMSO at 10 mM, and serially diluted in FLIPR buffer.
The assay plate is placed in the FLIPR incubation chamber and a baseline fluorescence measurement (excitation @ 488 nm and emission @ 510-570 nm) is obtained (15 sec interval). An experimental run is then commenced. The reaction is started with the addition of 50 μL/well (at 4× final concentration) of test, control, or reference compound solution from the agonist plate to the assay plate to all 96 wells simultaneously. Fluorescence is measured for 120 sec at 1 sec intervals. Then, a second addition of 5 μM ionomycin (50 μL/well from 5× concentration ionomycin plate) is added to the assay plate. Fluorescence is measured for 30 sec at 1 sec intervals. All experiments are conducted at room temperature.
For each assay plate, responses (increase in peak fluorescence) in each well following addition of agonist (test, control and reference) are determined. These responses may be expressed as raw CFU (Corrected Fluorescence Units), as a % maximum ionomycin response or other unit as determined by the investigator.
For test compound, control compound (Noerepinephrine (NE) bitartrate), and reference compound, the concentration producing a 50% increase in control response (EC50) is determined using iterative curve-fitting methods. Excel spreadsheet or Kaleidagraph software are used to fit data to the general logistic function (E=B+Emax·A^nH/A^nH+EC50^nH), where B is the corrected baseline fluorescence units (defined as zero), A is the concentration of agonist added and nH is the Hill slope (constrained to unity). EC50 values and maxima (Emax) for each curve can be estimated objectively using this software.
In addition the intrinsic activity (α) is determined. Intrinsic activity is defined as the maximum response to test agonist divided by the maximum response to a full agonist acting through the same receptor. For these experiments, the full agonist is defined as Norepinephrine (NE) bitartrate (control).
For orientation: Calcium assays in cells follow changes in intracellular calcium, usually with a dye or a luminescent sensor.

The mark [2] stands for this setting: CHO-K1 cells expressing alpha-1A adrenoceptors, FLIPR calcium fluorescence, room temperature.

A word on the EC50: it is the midpoint of the concentration-response curve. In the case of `Cc1c(S(C)(=O)=O)c2ccc(S(C)(=O)=O)cc2n1CC1=NCCN1` [1-(4,5-Dihydro-1H-imidazol-2-ylmethyl)-3,6-bis-methanesulfonyl-2-methyl-1H-indole], the EC50 in data set [1] (setting [2]) is 60300 nM. In data set [1], the “IA (intrinsic activity)” value was 0.18. On the same counts, the results for `Cc1c(S(C)(=O)=O)c2ccccc2n1CC1=NCCN1` [1-(4,5-Dihydro-1H-imidazol-2-ylmethyl)-3-methanesulfonyl-2-methyl-1H-indole] are 0.832 nM and 1.00. The matching figures for `Cc1ccc2c(c1)c(S(C)(=O)=O)c(C)n2CC1=NCCN1.Cl` [1-(4,5-Dihydro-1Hmidazol-2-ylmethyl)-3-methanesulfonyl-2,5-dimethyl-1H-indole]: 23.4 nM and 0.93. On the same counts, the results for `Cc1c(S(C)(=O)=O)c2cccc(C(F)(F)F)c2n1CC1=NCCN1` [1-(4,5-Dihydro-1H-imidazol-2-ylmethyl)-3-methanesulfonyl-2-methyl-7-trifluoromethyl-1H-indole] are 141 nM and 0.96. A word on the pEC50: it is −log10 of the EC50, conventionally taken in molar units. Take “6-Bromo-1-(4,5-dihydro-1H-imidazol-2-ylmethyl)-1H-indole-3-carboxylic acid dimethylamide [Example 17]”: the pEC50 in data set [1] (setting [2]) is on record as 8.34. Moreover, the “IA (intrinsic activity)” value in data set [1] was 1.02. As for `CS(=O)(=O)c1cn(CC2=NCCN2)c2ccccc12` [1-(4,5-Dihydro-1H-imidazol-2-ylmethyl)-3-methanesulfonyl-1H-indole], the EC50 in data set [1] (setting [2]) was 2.29 nM. Further, in data set [1], the “IA (intrinsic activity)” value is given as 1.07. The matching figures for `COc1ccc2c(S(C)(=O)=O)c(C)n(CC3=NCCN3)c2c1` [1-(4,5-Dihydro-1H-imidazol-2-ylmethyl)-3-methanesulfonyl-6-methoxy-2-methyl-1H-indole]: 10 nM and 1.05. By melting point is commonly meant the temperature of the solid-liquid transition. `Cc1c(S(C)(=O)=O)c2cccc(Cl)c2n1CC1=NCCN1` [Example 4, 7-Chloro-1-(4,5-dihydro-1H-imidazol-2-ylmethyl)-3-methanesulfonyl-2-methyl-1H-indole]: the melting point lay within 221 to 223 °C. With `Cc1c(S(C)(=O)=O)c2c(S(C)(=O)=O)cccc2n1CC1=NCCN1` [1-(4,5-Dihydro-1H-imidazol-2-ylmethyl)-3,4-bis-methanesulfonyl-2-methyl-1H-indole], the EC50 in data set [1] (setting [2]) is 1050 nM. The “IA (intrinsic activity)” value in data set [1] is 1.04.

Take `CN(C)S(=O)(=O)c1cn(CC2=NCCN2)c2cc(Cl)ccc12` [6-Chloro-1-(4,5-dihydro-1H-imidazol-2-ylmethyl)-1H-indole-3-sulfonic acid dimethylamide]: the EC50 in data set [1] (setting [2]) is 9.12 nM. Further, the “IA (intrinsic activity)” value in data set [1] is listed as 1.00.
